# Reference: patent US20080312150A1 (priority 1999, published 2008)
# Key:
# [1] = system: LNCaP cells; test: PDT using ALA-induced PpIX, cell survival (MTT conversion assay); assay type: cell-based, human; conditions: for light dose to reduce cell survival by 50% (MTT): 514 nm light; for survival after PDT: versus no pretreatment
# Procedure: ALA-induced PpIX for PDT of LNCaP cells with (circles) or without (triangles) pretreatment for 72 hours with 10^−7 M R1881. The cells were incubated with ALA concentrations from 0.1 to 1.0 mM for four hours prior to exposure to 10 J/cm^2 of 514 nm light.
# PDT using ALA-induced PpIX in LNCaP cells with (circles) or without (triangles) pretreatment for 72 hours with 10^−7 M R1881. The cells were incubated with 0.3 mM ALA for four hours prior to exposure to 3-20 J/cm^2 of 514 nm light.
# (§1) LNCaP (human prostate cancer) cells were treated with methotrexate (1 μg/ml) for 72 hours. The cells were then incubated with 0.3 mM ALA for 4 hours. After ALA treatment, cells were either used for quantification of PpIX or exposed to 514 nm light. […] This enhancement of PDT by chemotherapy can also be seen when long-term survival was assessed by colony formation assay (FIG. 6B). Here, the 50% levels are reached at 25 J/cm2, compared to 2 J/cm2. […] Chemotherapeutic effect was also confirmed using cyclophosphamide.
# [2] = system: LNCaP (human prostate cancer) cells; test: PDT long-term survival by colony formation assay; assay type: cell-based; conditions: 514 nm light
# Procedure: as §1
# [3] = system: human skin; test: Fluorescence micrograph of ALA-induced PpIX in human skin; conditions: human skin incubated in ALA for 4 hours
# [4] = system: LNCaP cells; test: Confocal laser scanning microscopy of PPIX fluorescence in living cells; assay type: cell-based, human; conditions: 10^−7 M R1881 72 hours, then 0.3 mM ALA 4 hours; excitation 488 nm
# Procedure: LNCaP cells were pretreated with 10^−7 M R1881 for 72 hours or with vehicle, and then incubated with 0.3 mM ALA. At 4 hours the living cells were imaged using the confocal laser scanning microscope. Excitation was at 488 nm and both green (auto fluorescence) and red (PPIX) fluorescence was recorded and combined.
# [5] = system: LNCaP human prostate cancer cells; test: ALA-induced PpIX formation by LNCaP cells; assay type: cell-based
# Procedure: ALA-induced PpIX formation by LNCaP human prostate cancer cells. The cells were incubated for four hours with 0.3 mM ALA after 72 hours of pretreatment with the synthetic androgen R1881 at concentrations between 10^−10 to 10^−6.
# as §1
# [6] = system: LNCaP tumors; test: PpIX formation in LNCaP tumors in vivo (confocal imaging of frozen sections); parameters: species or system SCID mice; conditions: 400 pg/kg R1881, after 4 days 250 mg/kg ALA i.p., tumors removed at 4 hours; 633 nm excitation
# Procedure: SCID mice bearing LNCaP tumors were pretreated with a high dose of 400 pg/kg R1881 and after 4 days received 250 mg/kg ALA i.p. At 4 hours, the mice were sacrificed and the tumors removed. Frozen sections of the tumors were imaged on the confocal laser scanning microscope. Using 633 nm excitation, the sections of tumors from an untreated mouse (FIG. 5A) and an R1881-pretreated mouse (FIG. 5B) were imaged at the same instrument parameters.
# [7] = cell line and regimen not stated
# Procedure: as §1
# [8] = PDT alone: 0.3 mM ALA 4 hours, no methotrexate
# [9] = combined regimen: methotrexate 1 μg/ml 72 hours, 0.3 mM ALA 4 hours
structure (smiles),measurement,setting,value
NCC(=O)CCC(=O)O [ALA],light dose to reduce cell survival by 50% (MTT),[1]; [8],20 J/cm2
same,light dose for 50% level (colony formation),[2]; [8],25 J/cm2
same,ALA-induced PpIX fluorescence signal across epidermal layers,[3],increase of fluorescence signal from bottom to top epidermal layers
C[C@]1(O)CC[C@H]2[C@@H]3CCC4=CC(=O)CCC4=C3C=C[C@@]21C [R1881],survival after PDT,"[1]; 72 hours 10^−7 M R1881, 0.3 mM ALA four hours, 3-20 J/cm^2 of 514 nm light",Reduced survival
same,survival after PDT,"[1]; 72 hours 10^−7 M R1881, ALA 0.1 to 1.0 mM four hours, 10 J/cm^2 of 514 nm light",Reduced survival
same,PPIX fluorescence in cells,[4],strong PPIX fluorescence in almost all cells
same,ALA-induced PpIX formation (% of cells without androgen treatment),"[5]; 72 hours pretreatment with R1881 10^−10 to 10^−6, then 0.3 mM ALA four hours",significant increase
same,PpIX formation in tumors,[6],increased PpIX formation
O=P1(N(CCCl)CCCl)NCCCO1 (stereo not drawn) [cyclophosphamide],chemotherapeutic effect (enhancement of PDT by pretreatment),[7],confirmed
CN(Cc1cnc2nc(N)nc(N)c2n1)c1ccc(C(=O)N[C@@H](CCC(=O)O)C(=O)O)cc1 [methotrexate],light dose to reduce cell survival by 50% (MTT),[1]; [9],2 J/cm2
same,light dose for 50% level (colony formation),[2]; [9],2 J/cm2
same,increase in PpIX levels,"[5]; methotrexate 1 μg/ml 72 hours, then 0.3 mM ALA 4 hours, mean+/−standard deviation",4.1±1.1 fold
